Experiments:
CRTH2 [1] = molecular target: T1, CRTH2 (Homo sapiens, UniProt Q9Y5Y4); assay: Human Whole Blood CD11b Antagonist Assay (CD11b expression in eosinophils challenged with 15R-Methyl-PGD2); format: cell-based; conditions: agonist 15R-Methyl-PGD2 10 nM, flow cytometry
T1 construct: polymorphonuclear cells (0.5 ml; 10^6/ml cells) in PBS containing 0.9 mM CaCl2 and 0.5 mM MgCl2) were preincubated with various concentrations of test compounds; endogenous in cells; host or cells: polymorphonuclear cells (eosinophils gated by side scatter and VLA-4)
T1 sequence (Q9Y5Y4 1-395): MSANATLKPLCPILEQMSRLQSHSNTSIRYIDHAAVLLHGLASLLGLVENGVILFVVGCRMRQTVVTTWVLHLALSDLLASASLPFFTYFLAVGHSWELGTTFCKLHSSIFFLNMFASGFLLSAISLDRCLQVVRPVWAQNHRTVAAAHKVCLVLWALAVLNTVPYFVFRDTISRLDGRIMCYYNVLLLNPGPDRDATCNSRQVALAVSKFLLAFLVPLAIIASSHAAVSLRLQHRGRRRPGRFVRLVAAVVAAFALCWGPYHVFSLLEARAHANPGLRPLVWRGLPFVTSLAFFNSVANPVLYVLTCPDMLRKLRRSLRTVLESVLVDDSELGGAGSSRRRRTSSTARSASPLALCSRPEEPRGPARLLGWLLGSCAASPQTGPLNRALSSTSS
Experimental: Human Whole Blood CD11b Antagonist Assay (modified from Nicholson, et al. Pulmonary Pharmacology and Therapeutics: 20 (2007); 52-59). The potential CRTH2 antagonist activity of certain compounds was tested in human whole blood using an assay that tests the ability of the compounds to block the CD11b expression in eosinophils by 15-R-methyl-PGD2. A CRTH2 antagonist should block CD11b expression by subsequently added 15-Methyl-PGD2. Human whole blood (200 μL) was incubated at 37° C. for 10 minutes in the presence of various concentrations of test compounds before being challenged with the agonist 15R-Methyl-PGD2 (10 nM). Reactions were terminated by the addition of ice-cold PBS+0.5% BSA+2 m MEDTA (1 mL) and centrifugation (300×g for 5 minutes at 4° C.) Cells were then incubated at 4° C. for 10 min in the presence of human IgG. Cells were then incubated for 30-45 min with a mixture of PE-Cy5-labeled mouse anti-human CD16 (10 μl; BD Biosciences) and FITC-labeled mouse anti-human CD11b (10 μL; Beckman Coulter.) After rinsing (1 mL ice-cold PBS+0.5% BSA+2 mMEDTA), red blood cells were lysed by the addition of 1 mL ice-cold H2O to the cell pellet for 30 sec-1 min immediately followed by the addition of 3.5% NaCl (300 μL.) Cells were then rinsed (2×−1 ml ice cold PBS+0.5% BSA+2 m MEDTA) and fixed in PBS containing 1% formaldehyde. The distribution of fluorescence intensities was measured by flow cytometry. Eosinophils were gated out on the basis of their granularity (high side scatter) and absence of CD-16. CD11b was then measured on this eosinophil population on the basis of fluorescence due to FITC. DPBS CD11b Antagonist Assay. The potential CRTH2 antagonist activity of certain compounds was tested using a CD11b expression assay using essentially the method described by Monneret et al. (J Pharmacol Exp Ther 304:349-55, 2003). Briefly, polymorphonuclear cells (0.5 ml; 10^6/ml cells) in PBS containing 0.9 mM CaCl2 and 0.5 mM MgCl2) were preincubated with various concentrations of test compounds at room temperature for 10 minutes before they were challenged with the agonist 15R-Methyl-PGD2 (10 nM). The incubations were terminated by the addition of ice-cold FACSFlow (BD Biosciences; Cat# 342003) and centrifugation (400 g for 5 minutes at 4° C.). The cells were then incubated for 30 minutes at 4° C. with a mixture of PE-labeled mouse anti-human VLA-4 (5 μl; BD Biosciences) and FITC-labeled mouse anti-human CD11b (10 μl; Beckman Coulter). […] The distribution of fluorescence intensities among 60,000 cells was measured by flow cytometry. Eosinophils were gated out on the basis of their granularity (high side scatter) and labeling with VLA-4 (PE fluorescence). CD11b was then measured in the eosinophil region on the basis of fluorescence due to FITC. […]

CRTH2 [2] = molecular target: T1, CRTH2; assay: DPBS CD11b Antagonist Assay (CD11b expression in eosinophils, polymorphonuclear cells challenged with 15R-Methyl-PGD2); format: cell-based; conditions: polymorphonuclear cells in PBS with CaCl2 and MgCl2; agonist 15R-Methyl-PGD2 10 nM; flow cytometry
Experimental: Human Whole Blood CD11b Antagonist Assay (modified from Nicholson, et al. Pulmonary Pharmacology and Therapeutics: 20 (2007); 52-59). The potential CRTH2 antagonist activity of certain compounds was tested in human whole blood using an assay that tests the ability of the compounds to block the CD11b expression in eosinophils by 15-R-methyl-PGD2. A CRTH2 antagonist should block CD11b expression by subsequently added 15-Methyl-PGD2. Human whole blood (200 μL) was incubated at 37° C. for 10 minutes in the presence of various concentrations of test compounds before being challenged with the agonist 15R-Methyl-PGD2 (10 nM). Reactions were terminated by the addition of ice-cold PBS+0.5% BSA+2 m MEDTA (1 mL) and centrifugation (300×g for 5 minutes at 4° C.) Cells were then incubated at 4° C. for 10 min in the presence of human IgG. Cells were then incubated for 30-45 min with a mixture of PE-Cy5-labeled mouse anti-human CD16 (10 μl; BD Biosciences) and FITC-labeled mouse anti-human CD11b (10 μL; Beckman Coulter.) After rinsing (1 mL ice-cold PBS+0.5% BSA+2 mMEDTA), red blood cells were lysed by the addition of 1 mL ice-cold H2O to the cell pellet for 30 sec-1 min immediately followed by the addition of 3.5% NaCl (300 μL.) Cells were then rinsed (2×−1 ml ice cold PBS+0.5% BSA+2 m MEDTA) and fixed in PBS containing 1% formaldehyde. The distribution of fluorescence intensities was measured by flow cytometry. Eosinophils were gated out on the basis of their granularity (high side scatter) and absence of CD-16. CD11b was then measured on this eosinophil population on the basis of fluorescence due to FITC. DPBS CD11b Antagonist Assay. The potential CRTH2 antagonist activity of certain compounds was tested using a CD11b expression assay using essentially the method described by Monneret et al. (J Pharmacol Exp Ther 304:349-55, 2003). Briefly, polymorphonuclear cells (0.5 ml; 10^6/ml cells) in PBS containing 0.9 mM CaCl2 and 0.5 mM MgCl2) were preincubated with various concentrations of test compounds at room temperature for 10 minutes before they were challenged with the agonist 15R-Methyl-PGD2 (10 nM). The incubations were terminated by the addition of ice-cold FACSFlow (BD Biosciences; Cat# 342003) and centrifugation (400 g for 5 minutes at 4° C.). The cells were then incubated for 30 minutes at 4° C. with a mixture of PE-labeled mouse anti-human VLA-4 (5 μl; BD Biosciences) and FITC-labeled mouse anti-human CD11b (10 μl; Beckman Coulter). The cells were then incubated with Optilyse C (0.25 ml; Beckman Coulter) for 15 minutes, centrifuged, and then fixed in PBS (0.4 ml; calcium and magnesium free) containing 1% formaldehyde. The distribution of fluorescence intensities among 60,000 cells was measured by flow cytometry. Eosinophils were gated out on the basis of their granularity (high side scatter) and labeling with VLA-4 (PE fluorescence). CD11b was then measured in the eosinophil region on the basis of fluorescence due to FITC. All data were corrected for the value obtained for the corresponding isotope control antibody.

IC50 (CRTH2 [1]) | IC50 (CRTH2 [2]) | SMILES
0.01 to 0.1 µM | < 0.01 µM | CCN(C)S(=O)(=O)c1ccccc1Cc1c2c(n(CC(=O)O)c1C)CC(C)(C)CC2=O [Compound I-3, 2-(3-(2-(N-ethyl-N-methylsulfamoyl)benzyl)-2,6,6-trimethyl-4-oxo-4,5,6,7-tetrahydro-1H-indol-1-yl)acetic acid]
> 0.6 µM | 0.1 to 0.6 µM | CCOC(=O)Cn1c(C)c(Cc2ccccc2S(=O)(=O)N(C)CC)c2c1CC(C)(C)CC2=O [Compound I-2, Ethyl 2-(3-(2-(N-ethyl-N-methylsulfamoyl)benzyl)-2,6,6-trimethyl-4-oxo-4,5,6,7-tetrahydro-1H-indol-1-yl)acetate]
< 0.01 µM | < 0.01 µM | Cc1c(Cc2ccccc2S(=O)(=O)N2CCCCC2)c2c(n1CC(=O)O)CC(C)(C)CC2=O [Compound I-4, 2-(2,6,6-Trimethyl-4-oxo-3-(2-(piperidin-1-ylsulfonyl)benzyl)-4,5,6,7-tetrahydro-1H-indol-1-yl)acetic acid]
– | > 0.6 µM | CCOC(=O)C(C)n1c(C)c(Cc2ccccc2S(=O)(=O)N2CCCC2)c2c1CC(C)(C)CC2=O (stereo not drawn) [Compound I-5, Ethyl 2-(2,6,6-trimethyl-4-oxo-3-(2-(pyrrolidin-1-ylsulfonyl)benzyl)-4,5,6,7-tetrahydro-1H-indol-1-yl)propanoate]
0.1 to 0.6 µM | 0.1 to 0.6 µM | Cc1c(C(=O)c2ccccc2S(=O)(=O)N2CCOCC2)c2c(n1CC(=O)O)CCC(C)(C)C2 [Compound I-1, 2-(2,5,5-Trimethyl-3-(2-(morpholinosulfonyl)benzoyl)-4,5,6,7-tetrahydro-1H-indol-1-yl)acetic acid]
